Measurements as given in patent US4048299A, “Anticaries confectionaries and oral health products” (William Wrigley, Jr. Co., priority 1970, dated 1977).

How the values were obtained:
Type in all cases: cell-based
Conditions in all cases: 1 to 5 percent aldehyde
[1] = tested on: Streptococcus spp. KI-R; assay: Acid production inhibition by aldehydes in product vehicles, broth-tube technique
Protocol: (§1) Other in vitro evaluations utilized a broth tube analysis of representative anticaries aldehydes incorporated in the vehicles of this invention against cultures of acid producing microorganisms normally present in the mouth. Standard laboratory procedures were utilized throughout to evaluate the acid production inhibition and growth inhibition over the incubation time of up to 24 hours.
(§2) (a)Measured by broth-tube technique.
(§3) In formulating Tables XIII - XIX representative aldehydes having anticaries activity were selected from those tested as summarized in Tables I - XII and incorporated in seven representative types of products. The products included dextrose and sucrose syrups, obtained commercially in food grades, and compressed candy, hard candy, mouthwash, toothpaste and toothpowder. The five latter products also employed food grade and reagent grade ingredients. These products were formulated by well-known and representative recipes for each type of product. The products were formed in batches of approximately 1 pound or 1 liter and contained all their normal constitutents. Aliquots of each products were blended with one of each of the representative aldehydes selected except in the case of hard candy.
(§4) Aliquots of the aldehyde incorporating sugar syrups, confectioneries, and mouthwash formulations were added directly to assay flasks and mixed or dissolved as required. Aqueous extracts of the aldehyde incorporated in toothpaste and toothpowder were prepared and aliquots of the filtrate were added to the assay flasks.
(§5) The assay flasks contained the necessary components for a normal growth response from the organisms employed, Lactobacillus casei ATCC 4646, originally a human oral isolate, Streptococcus spp. K1-R, human caries isolate, and a mixed oral microbial population obtained fresh from saliva on the morning prior to the initiation of each assay incubation period. The assay flask medium was dissolved in distilled water in which was added an equal volume of filter sterilized human saliva to yield a 50 percent saliva-medium combination. The medium contained all normal ingredients such as yeast extract, proteose peptone number 3 (a proprietary formula of Difco Laboratories, Detroit, Michigan) monopotassium phosphate, Tween 80 (polyoxethylene sorbitan monoleate) and water, except a carbon source. This was supplied by the aliquot of the sucrose syrup, dextrose syrup, sucrose in the compressed candy tablet and sucrose in the hard candy product. In addition, an aliquot of sucrose solution concentrate was added to the assay flask as a carbon source for evaluation of mouthwash, toothpaste, and toothpowder vehicles.
(§6) The lower aldehydes such as glycolaldehyde, crystalline dimer; pyruvaldehyde, aqueous syrup; d,1-glyceraldehyde solution and crystalline dimer; and glutaraldehyde, employed as a 50 percent aqueous solution, are water soluble and were employed directly either as powders or aqueous solutions. The C8 to C12, longer chain aliphatic aldehydes, of which decyl and dodecyl (lauric) were selected as representative, are oil soluble and are prepared and added to the products as emulsions with four parts of Tween 20, polyoxethylene sorbitan monolaurate. The aldehyde concentrations in the products were randomly chosen between 1 to 5 percent by weight. Limits for the concentrations were selected to coincide with the data presented in Tables I - XII in order to verify that the anticaries activity of the aldehydes in the product vehicles tested was equivalent to the activity previously established for the aldehydes alone.

[2] = tested on: Lactobacillus casei ATCC 4646; assay: as above
Protocol: as §1, §2, §3, §4, §5, §6

[3] = tested on: Streptococcus spp. KI-R; assay: Growth inhibition by aldehydes in product vehicles, pour-plate technique
Protocol: as §1
(§7) (b)Measured by pour-plate technique.
as §3, §4, §5, §6

[4] = tested on: Mixed human oral microorganisms; assay: as above
Protocol: as §1, §7, §3, §4, §5, §6

[5] = tested on: Lactobacillus casei ATCC 4646; assay: as above
Protocol: as §1, §7, §3, §4, §5, §6

[6] = in compressed candy tablet, 2 h incubation
[7] = in compressed candy tablet, 5 h incubation
[8] = in compressed candy tablet, 24 h incubation
[9] = in dextrose syrup, 2 h incubation
[10] = in dextrose syrup, 5 h incubation
[11] = in dextrose syrup, 24 h incubation
[12] = in sucrose syrup, 2 h incubation
[13] = in sucrose syrup, 5 h incubation
[14] = in sucrose syrup, 24 h incubation
[15] = in toothpaste (aqueous extract), 2 h incubation
[16] = in toothpaste (aqueous extract), 5 h incubation
[17] = in toothpaste (aqueous extract), 24 h incubation

CCCCCCCCCC=O [Decanaldehyde]
Acid Production Inhibition [1, 6]: 50 Per Cent | Acid Production Inhibition [1, 7]: 85 Per Cent | Acid Production Inhibition [1, 8]: 98 Per Cent | Acid Production Inhibition [1, 9]: 35 Per Cent | Acid Production Inhibition [1, 10]: 91 Per Cent | Acid Production Inhibition [1, 11]: 89 Per Cent | Acid Production Inhibition [1, 12]: 75 Per cent | Acid Production Inhibition [1, 13]: 98 Per cent | Acid Production Inhibition [1, 14]: 100 Per cent | Acid Production Inhibition [1, 15]: 40 Per cent | Acid Production Inhibition [1, 16]: 100 Per cent | Acid Production Inhibition [1, 17]: 67 Per cent | Acid Production Inhibition [2, 6]: 0 Per Cent | Acid Production Inhibition [2, 7]: 67 Per Cent | Acid Production Inhibition [2, 8]: 97 Per Cent | Acid Production Inhibition [2, 9]: 67 Per Cent | Acid Production Inhibition [2, 10]: 77 Per Cent | Acid Production Inhibition [2, 11]: 96 Per Cent | Acid Production Inhibition [2, 12]: 0 Per cent | Acid Production Inhibition [2, 13]: 95 Per cent | Acid Production Inhibition [2, 14]: 99 Per cent | Acid Production Inhibition [2, 15]: 80 Per cent | Acid Production Inhibition [2, 16]: 80 Per cent | Acid Production Inhibition [2, 17]: 83 Per cent | Growth Inhibition [3, 6]: N.S. | Growth Inhibition [3, 7]: N.S. | Growth Inhibition [3, 8]: N.S. | Growth Inhibition [3, 9]: 100 Per Cent | Growth Inhibition [3, 10]: 100 Per Cent | Growth Inhibition [3, 11]: 100 Per Cent | Growth Inhibition [3, 12]: > 99.99 Per cent | Growth Inhibition [3, 13]: > 99.99 Per cent | Growth Inhibition [3, 14]: N.S. | Growth Inhibition [3, 15]: 0 Per cent | Growth Inhibition [3, 16]: N.S. | Growth Inhibition [3, 17]: N.S. | Growth Inhibition [4, 6]: > 99.99 Per Cent | Growth Inhibition [4, 7]: > 99.99 Per Cent | Growth Inhibition [4, 8]: 100 Per Cent | Growth Inhibition [4, 9]: > 99.99 Per Cent | Growth Inhibition [4, 10]: 100 Per Cent | Growth Inhibition [4, 11]: 100 Per Cent | Growth Inhibition [4, 12]: > 99.99 Per cent | Growth Inhibition [4, 13]: > 99.99 Per cent | Growth Inhibition [4, 14]: N.S. | Growth Inhibition [4, 15]: N.S. | Growth Inhibition [4, 16]: N.S. | Growth Inhibition [4, 17]: 0 Per cent | Growth Inhibition [5, 6]: 99.98 Per Cent | Growth Inhibition [5, 7]: 100 Per Cent | Growth Inhibition [5, 8]: 100 Per Cent | Growth Inhibition [5, 9]: 99.7 Per Cent | Growth Inhibition [5, 10]: 100 Per Cent | Growth Inhibition [5, 11]: 100 Per Cent | Growth Inhibition [5, 12]: 99.5 Per cent | Growth Inhibition [5, 13]: > 99.9 Per cent | Growth Inhibition [5, 14]: > 99.99 Per cent | Growth Inhibition [5, 15]: 0 Per cent | Growth Inhibition [5, 16]: N.S. | Growth Inhibition [5, 17]: 0 Per cent
